According to paper PMC6240096, “A hPSC-based platform to discover gene-environment interactions that impact human β-cell and dopamine neuron survival” (Nature Communications, 2018):

How the values were obtained:
INS+ cells = test: High-content survival / inhibitory curve, hESC-derived INS+ cells; format: cell-based, human
Protocol: (§1) The screening library ToxCast Phase I was obtained from the US Environmental Protection Agency, which contains approximately 2000 compounds dissolved at 20 mM in DMSO. The H1 hESC-derived population was dissociated with Accutase and re-plated onto laminin V-coated 384-well plates at 5000 cells per well. After 16 h incubation, cells were treated with individual compounds from the ToxCast library with four concentrations, including 20 nM, 200 nM, 2 μM, and 20 μM, for each compound. After 4 days, the cells were fixed with 10% formalin and stained with an INS antibody and DAPI, followed by automatic imaging and analysis by ImageXpress^MICRO Automated High-Content Analysis System (Molecular Devices) to count the numbers of INS^+ and INS^− cells. The survival rate was calculated by dividing the numbers of INS^+ cells in compound treated conditions by the average number of INS^+ cells in DMSO-treated conditions. The compounds that induced more than 60% reduction of the survival rate of INS^+ cells and less than 20% of the INS^− cells were chosen as primary hits. Hit compounds were then selected and validated in three additional independent experiments using the same protocol as the primary screening.
hESCs-derived INS^+ cells, MSCs[43], neurons, and hepatocytes[44] were derived based on the reported protocols and re-plated on 96-well plates with Accutase digestion. Cardiomyocytes (CMs) were differentiated from H9-MYH6: mCherry reporter line, based on the reported protocol. After overnight incubation, cells were treated with DMSO or different doses of hit compounds for 4 days. After fixation, the cells were stained with markers for each cell type. DAPI was used to stain cell nuclei. Plates were analyzed by ImageXpress^MICRO Automated High-Content Analysis System.

primary human islets = test: Primary human islets, INS and propidium iodide staining; format: cell-based; details: 2 mM GSH
Text: Fig. 1 A high-content screen identifies propargite as a compound that induces pancreatic β-cell death. a Scheme of pancreatic β-cell differentiation and high-content chemical screen. b Chemical structure of two hit compounds: Propargite and Vacor. c Inhibitory curve and IC50 of propargite or Vacor on INS^+ and INS^− cells (n = 8). d, e Immunocytochemistry analysis (d) and survival rate (e) of H1-derived glucose-responding INS^+ and INS^− cells treated with different doses of propargite (n = 8). Pancreatic β-like cells were stained for INS (green) and all cells were counterstained by DAPI (blue). Scale bars, 100 μm. The survival rate was calculated by dividing the average number of cells in propargite-treated conditions by the average number of cells in the DMSO control. f, g Representative live images (f) and fold-change (g) of INS^w/GFP HES3-derived INS-GFP^+ cells treated with 1.6 μM propargite or DMSO control at different time points compared to initial time 0 (n = 3). Scale bars, 100 μm. h, i, j Representative images (h) and cell survival rate (i) or cell death rate (j) of DMSO or propargite-treated human primary islets (n = 3). Pancreatic β-cells were stained with the INS antibody (green) and dead cells were stained with propidium iodide (PI) (red). Scale bars, 200 μm. Scale bars for higher resolution (Zoom) images, […]. Pancreatic β-cell death rate was calculated by defining percentages of INS^+ PI^+ cells in INS^+ cells, and non-β-cell death rate was calculated by percentages of INS^−PI^+ cells in INS^− cells.

MIN6 cells = test: Western blotting of γ-H2A.X and extracellular HMGB1 in MIN6 cells; format: cell-based, mouse; details: 2 mM GSH, day 4
Text: To extract intracellular protein, cells were placed on ice, washed twice with ice-cold PBS and lysed immediately with RIPA buffer (Life Technologies, 89900) supplemented with a protease inhibitor cocktail (Life Technologies, 78440). Cell lysates were then sonicated and the soluble fraction was collected after centrifugation. Protein amount was quantified by the BCA protein assay (Life Technologies, 23227). To extract extracellular HMGB1, tissue culture media were collected and concentrated using Afyon SDS-PAGE sample preparation kit (advansta, K-02101-025). 20 μg of total protein for each sample was mixed with loading buffer and incubated for 5 min at 95 °C before being loaded into NuPAGE® Novex® 4–12% […] Protein Gels (Life Technologies, NP0321BOX) for electrophoresis. Separated proteins were transferred to a PVDF membrane (Millipore, IPSN07852) after electrophoresis. The membrane was blocked with 5% non-fat milk in TBST (50 mM Tris–HCl at pH 8.0, 150 mM NaCl, 0.1% Tween 20) followed by overnight incubation with the primary antibody at 4 °C. The following antibodies were used with the dilution ratio noted: rabbit anti-HMGB1 (1:1000, Cell Signaling Technology, #6893), rabbit anti-γ-H2A.X (1:1000, Cell Signaling Technology, #9718), rabbit anti-LC3B (1:1000, Cell Signaling Technology, #3868), mouse anti-GSTT1 (1:1000, GeneTex, GTX109250), rabbit anti-GSTM1 (1:1000, R&D system, MAB6894), mouse anti-GAPDH (1:50000, Abcam, ab8245). A peroxidase conjugated horse anti-mouse IgG secondary antibody (1:20000, Vector Laboratories, PI-2000) or peroxidase conjugated goat anti-Rabbit IgG secondary antibody (1:20000, Vector Laboratories, PI-1000) was used for western blot. ECL signals were developed and detected using the SuperSignal™ West Femto Maximum Sensitivity Substrate (Life Technologies, 34094) and a C-DiGit Chemiluminescent Western Blot Scanner (LI-COR). Uncropped scans of all the blots were shown in Supplementary Fig. 7 in the Supplementary Information.

INS- cells = test: High-content survival / inhibitory curve, hESC-derived INS- cells; format: cell-based, human; details: Homo sapiens, 96 h; H1 hESC-derived, β-cell differentiation protocol 1, 4 days treatment, n = 8
Protocol: as §1, with “Hit compounds were then selected and validated in three additional independent experiments using the same protocol as the primary screening.” left out
hESCs-derived INS^+ cells, MSCs[43], neurons, and hepatocytes[44] were derived based on the reported protocols and re-plated on 96-well plates with Accutase digestion. […] Plates were analyzed by ImageXpress^MICRO Automated High-Content Analysis System.

Row | SMILES | rescue of survival rate of INS+ cells after propargite treatment (INS+ cells; 2 mM GSH) | rescue of propargite-induced β-cell-specific death in human islets (primary human islets) | rescue of propargite-induced DNA damage (γ-H2A.X expression) (MIN6 cells) | rescue of propargite-induced necrosis (extracellular HMGB1) (MIN6 cells) | IC50 (INS+ cells; Homo sapiens, 96 h, read-out: IC50 for INS+ cells) [µM] | IC50 (INS- cells) [µM]
1 | N[C@@H](CCC(=O)N[C@@H](CS)C(=O)NCC(=O)O)C(=O)O [GSH, glutathione, reference compound] | fully rescued | rescued | fully rescued | partially rescued |  | 
2 | O=C(NCc1cccnc1)Nc1ccc([N+](=O)[O-])cc1 [Vacor, N-3 pyridylmethyl-N′’-4-nitrophenyl urea] |  |  |  |  | 4.89 | 61.6
